According to US12514834B2, “Pharmaceutical composition for treating and/or preventing renal cystic ciliopathy” (Kyoto University, priority 2022, dated 2026):

Key:
[1] = tested on: cysts of collecting duct organoids from PKD1 knockout iPS cells (1383D2 cell line); assay: Cyst enlargement inhibition in cysts from artificial collecting duct organoids induced from PKD1 knockout iPS cells; assay type: cell-based, human; conditions: 0.1 μM compound, with 2.5 μM AVP, 3 days of culturing, vs 0.1% DMSO; FIGS. 1-5
Procedure: Using PKD1 knockout iPS cells of the 1383D2 cell line, artificial collecting duct organoids with cystic structures were induced by the above method. The following protocol was used to examine compounds that inhibit cyst enlargement. • 1. Organoids in which cyst formation was occurring were collected in tubes. • 2. Medium was removed and 2 ml of Cell Recovery Solution was added. (4° C., 30 minutes) • 3. Gel was dissolved by gentle pipetting with a P-1000 pipetteman and then centrifuged. (500 g, 2 minutes) • 4. After removing the supernatant from 3 and adding 5 ml of FBS-containing medium (STO medium), cysts were separated from the organoids by pipetting. • 5. Using a stereomicroscope, cysts were collected in 15 ml tubes. • 6. The supernatant was removed, and then 2 ml of Accutase was added to perform treatment at 37° C. for 5 minutes. • 7. Cells were dissociated down to single cells by pipetting with a P-1000 pipetteman. • 8. After filtering, cells were counted. • 9. After cell counting, a cell suspension containing the required number of cells was transferred to a tube, and then 5 ml of FBS-containing medium (STO medium) was added to stop the Accutase reaction. To seed at 5×10^4 cells/well, the amount of the cell suspension required was calculated. • 10. Pellets were prepared by centrifugation (200 g, 5 minutes). • 11. The supernatant was thoroughly removed, and then DMEM/F12+B27 w/o V.A. medium (10% Afamin/Wnt3a CM, 200 ng/ml R-Spondin 1, 200 ng/ml FGF1, 10 μM Forskolin, 2.5 μM AVP, 10 μM Y27632) was added for suspension. To seed at 5×10^4 cells/well, the amount of medium required was calculated. • 12. The cell suspension from 11 was seeded at 5×10^4 cells/well into pre-prepared 50% Matrigel plates. The cell suspension was added slowly to avoid disrupting the Matrigel. • 13. […] Nine (9) locations inside the wells were photographed using a 4× objective lens under a fluorescence microscope (Keyence, BZ-X700), the cyst area was measured using a BZ-X Analyzer, and then the average value was calculated.
Cyst enlargement-inhibiting compounds to be evaluated in step 14 were added. […]

[2] = tested on: Pkd1flox/flox:Ksp-Cre mice (ADPKD model); assay: ATRA treatment of ADPKD model mice; assay type: in vivo, mouse
Source text: Pkd1^flox/flox:Ksp-cre mice, which are ADPKD model mice, develop numerous cysts progressively after birth and die at approximately 14 days of age due to renal failure.
Mouse lineages were maintained with heterozygous Pkd1^flox/+:Ksp-Cre mice, and Pkd1^flox/flox:Ksp-cre mice were generated by mating mice of the same lineage.
On postnatal day 3, Pkd1^flox/flox:Ksp-cre mice (Cystic) and Pkd1^flox/+:Ksp-Cre mice (Non-cystic) were intraperitoneally administered with ATRA (Sigma, #R2625) dissolved in sunflower oil containing 2% DMSO (solvent) to achieve a dose of 10 mg/kg. A group of mice administered with only the solvent intraperitoneally was served as a negative control. Mice were euthanized on postnatal day 9, and renal tissues and blood samples were collected.
BUN in mouse serum was measured using an UN-L kit (Serotec, #A667-00).
Kidneys were fixed in 4% paraformaldehyde solution, and 4 μm-thick paraffin sections were prepared. After deparaffinization, HE staining was performed and renal tissues were photographed under an optical microscope. Cystic index was calculated by total cystic area/total renal tissue area×100 using image analysis and measurement software (WinROOF, Mitani Corporation).
Therapeutic effects of ATRA on ADPKD model mice Since ATRA has already been used as a therapeutic agent for Acute Promyelocytic Leukemia (APL) patients, the efficacy of ATRA in ADPKD model mice was examined from a drug repositioning perspective. To reflect the in vitro results of ATRA on collecting duct cyst enlargement in in vivo, Pkd1^flox/flox:Ksp-Cre mice, in which the Pkd1 allele is conditionally inactivated under expression of kidney-specific Ksp-Cre recombinase in the distal nephron segments and collecting ducts, were used. The mice develop renal failure from birth due to progressive cyst formation and die about 2 weeks after birth. Because Ksp cadherin is specifically expressed in the collecting ducts and distal tubules, cysts originating from the collecting ducts and distal tubules are formed in these ADPKD model mice. ATRA was administered at 10 mg/kg intraperitoneally to mice on postnatal day 3 (P3), and mice were then sacrificed at P9 (FIG. 12).

[3] = tested on: cyst cells from PKD1 knockout iPS cell-derived collecting duct organoids; assay: Microarray comparison of gene expression in cyst cells cultured with and without TTNPB (GSEA, heat maps); assay type: cell-based, human; conditions: 0.1 μM TTNPB, cysts on day 5 of culture
Procedure: For comprehensive profiling of transcripts encoding human proteins, microarray analysis was performed at Filgen using the Human 8×60K LncRNA expression array (ArrayStar). Labeling of samples and array hybridization were performed according to the Agilent One-Color Microarray-Based Gene Expression Analysis protocol (Agilent Technology). Data were collected using Agilent's Feature Extraction software. Raw signal intensities were normalized using the quantile normalization method of GeneSpring GX v12.1.
To clarify the mechanism of action of TTNPB, gene expression in cyst cells cultured with and without TTNPB was compared by microarray (FIGS. 6 and 7).

[4] = 10 mg/kg intraperitoneally on P3, P9, FIG. 14

With `CC1(C)CCC(C)(C)c2cc(NC(=O)c3ccc(C(=O)O)cc3)ccc21` [AM80, tamibarotene] the “cyst size (cyst area)” value [1] was “significantly reduced the cyst sizes”.

`CC1=C(/C=C/C(C)=C/C=C/C(C)=C/C(=O)O)C(C)(C)CCC1` [ATRA, all-trans retinoic acid] was tested, and the “cyst formation on the cortical side (HE-stained renal tissue sections)” value [2, 4] was “tended to inhibit cyst formation on the cortical side”, the “kidney size (HE-stained renal tissue sections)” value [2, 4] was “suppressed the increase in kidney size” and the “ratio of kidney weights to body weight (2KW/BW)” value ([2]; 10 mg/kg intraperitoneally on P3, P9, vs solvent, FIG. 13) was “significantly decreased”. The “cystic index (proportion of the area occupied by cysts in the renal tissue)” value ([2]; 10 mg/kg intraperitoneally on P3, P9, vs solvent, FIG. 15) was “significantly reduced”, the body weight ([2]; 10 mg/kg intraperitoneally on P3, sacrificed at P9, FIG. 12) was “No significant body weight loss” and the “BUN (blood urea nitrogen) levels” value ([2]; 10 mg/kg intraperitoneally on P3, serum at P9, vs control mice treated with solvent, FIG. 16) was “significantly lower”. The “cyst size (cyst area)” value [1] was “reduced the cyst sizes”.

In the case of `C/C(=C\c1ccc(C(=O)O)cc1)c1ccc2c(c1)C(C)(C)CCC2(C)C` [TTNPB, 4-[(E)-2-(5,6,7,8-tetrahydro-5,5,8,8-tetramethyl-2-naphthalenyl)-1-propenyl]benzoic acid], the “cyst size (cyst area)” value [1] is reported as “significant reduction in cyst size”, the “TGFβ signaling pathway (GSEA)” value ([3]; FIG. 8) is reported as “inhibited” and the “expression levels of MMP1, SLC2A1, CFTR, and HMGCR” value ([3]; heat map FIG. 9) is reported as “decreased”. The “expression of cellular senescence marker genes such as CDKN2B (p15)” value ([3]; heat map FIG. 10) was “promotes the expression”.
